Assay results: patent US12448388B2, “PRMT5 inhibitors and uses thereof” (Gilead Sciences, Inc., priority 2023, dated 2025)

Each molecule was assayed on HCT116 MTAP-deleted cell lines (assay: Cell viability assay (CellTiter-Glo, 7 days), HCT116 MTAP-deleted). Conditions: Homo sapiens, HCT-116; cell viability assay, HCT116 MTAP-deleted; class symbols; read-out: CC50.
Type: cell-based
Method in brief: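 HCT116 MTAP-deleted and wild-type cells exposed to serially diluted compound for 7 days at 37 °C, 5% CO2. Viability read by CellTiter-Glo luminescence; CC50 derived per line, with selectivity comparing WT to MTAP-deleted, limited solubility can inflate values marked *.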

Row | SMILES | CC50 [nM]
1 | Cc1ncc2c(N)nc3cnc(C(=O)N4C[C@@H](F)C[C@@H]5Oc6cc(C(F)(F)F)ccc6[C@@H]54)cc3n12 [Ff-656, (4-amino-1-methylimidazo[1,5-a]pyrido[3,4-e]pyrazin-8-yl)((3S,4aS,9bS)-3-fluoro-7-(trifluoromethyl)-3,4,4a,9b-tetrahydrobenzofuro[3,2-b]pyridin-1(2H)-yl)methanone] | < 100
2 | CN(C(=O)c1cc2c(cc1F)nc(N)c1cncn12)[C@H]1c2ccc(Br)cc2C[C@H]1OC(F)F [Ff-582, 4-amino-N-((1S,2R)-5-bromo-2-(difluoromethoxy)-2,3-dihydro-1H-inden-1-yl)-7-fluoro-N-methylimidazo[1,5-a]quinoxaline-8-carboxamide] | 100 to 1000
3 | Nc1nc2cc(F)c(C(=O)N3C[C@@H](F)C[C@@H]4Oc5cc(OC(F)(F)F)ccc5[C@@H]43)cc2n2cncc12 [Ff-666, (4-amino-7-fluoroimidazo[1,5-a]quinoxalin-8-yl)((3S,4aS,9bS)-3-fluoro-7-(trifluoromethoxy)-3,4,4a,9b-tetrahydrobenzofuro[3,2-b]pyridin-1(2H)-yl)methanone] | < 100
4 | CN(C(=O)c1cc2c(cc1F)nc(N)c1cncn12)[C@@H]1COc2cc(Cl)c(F)cc21 (single isomer, unassigned) [Ff-597] | < 100
5 | COC1(C#Cc2ccc3c(c2)OC[C@H]3N(C)C(=O)c2ccc3nc(N)c4cncn4c3c2)CC1 [Ff-531, (S)-4-amino-N-(6-((1-methoxycyclopropyl)ethynyl)-2,3-dihydrobenzofuran-3-yl)-N-methylimidazo[1,5-a]quinoxaline-8-carboxamide] | 100 to 1000
6 | COc1nn(C)cc1N(Cc1ccc(C(F)(F)F)cc1F)C(=O)c1cc2c(cc1F)nc(N)c1cncn12 [Ff-422, 4-amino-7-fluoro-N-[[2-fluoro-4-(trifluoromethyl)phenyl]methyl]-N-(3-methoxy-1-methyl-pyrazol-4-yl)imidazo[1,5-a]quinoxaline-8-carboxamide] | < 100
7 | CN(Cc1ccc(-c2cnn(C(F)(F)F)c2)cc1Cl)C(=O)c1cc2c(cc1F)nc(N)c1cncn12 [Ff-552, 4-amino-N-(2-chloro-4-(1-(trifluoromethyl)-1H-pyrazol-4-yl)benzyl)-7-fluoro-N-methylimidazo[1,5-a]quinoxaline-8-carboxamide] | 100 to 1000
8 | Nc1nc2cc(F)c(C(=O)N3CC[C@H]4C[C@@H]3c3ccc(Cl)nc34)cc2n2cncc12 [Ff-595, (4-amino-7-fluoroimidazo[1,5-a]quinoxalin-8-yl)((5R,9S)-2-chloro-5,7,8,9-tetrahydro-6H-5,9-methanopyrido[3,2-c]azepin-6-yl)methanone] | 100 to 1000
9 | Cc1ncn2c1c(N)nc1cnc(C(=O)N3C[C@@H](C)C[C@@H]4Oc5cc(C(F)(F)F)ccc5[C@@H]43)cc12 [Fg-37, (4-amino-3-methylimidazo[1,5-a]pyrido[3,4-e]pyrazin-8-yl)((3S,4aS,9bS)-3-methyl-7-(trifluoromethyl)-3,4,4a,9b-tetrahydrobenzofuro[3,2-b]pyridin-1(2H)-yl)methanone] | < 100
10 | Cc1ncc2c(N)nc3cc(F)c(C(=O)N4C[C@@H](F)C[C@@H]5Oc6cc(C(F)(F)F)ccc6[C@@H]54)cc3n12 [Ff-657, (4-amino-7-fluoro-1-methylimidazo[1,5-a]quinoxalin-8-yl)((3S,4aS,9bS)-3-fluoro-7-(trifluoromethyl)-3,4,4a,9b-tetrahydrobenzofuro[3,2-b]pyridin-1(2H)-yl)methanone] | < 100
11 | Nc1nc2cc(F)c(C(=O)N3CC4CCC(O4)C3c3ccc(C(F)(F)F)cn3)cc2n2cncc12 (centres unmarked) [Ff-511, (4-amino-7-fluoroimidazo[1,5-a]quinoxalin-8-yl)(2-(5-(trifluoromethyl)pyridin-2-yl)-8-oxa-3-azabicyclo[3.2.1]octan-3-yl)methanone] | 100 to 1000
12 | Cc1ncn2c1c(N)nc1cc(F)c(C(=O)N3C[C@@H](C)O[C@@H]4Cc5cc(C(F)(F)F)ccc5[C@@H]43)cc12 [Fg-34, (4-amino-7-fluoro-3-methylimidazo[1,5-a]quinoxalin-8-yl)((2R,4aS,9aR)-2-methyl-7-(trifluoromethyl)-2,3,9,9a-tetrahydroindeno[2,1-b][1,4]oxazin-4(4aH)-yl)methanone] | < 100

Same assay, conditions: Homo sapiens, HCT-116; cell viability, HCT116 MTAP-deleted; class symbols; read-out: CC50

Row | SMILES | CC50 [nM]
13 | C[C@@H]1C[C@@H]2Oc3c(ccc(C(F)(F)F)c3F)[C@@H]2N(C(=O)c2cc3c(cn2)nc(N)c2cncn23)C1 [Ff-348, (4-aminoimidazo[1,5-a]pyrido[3,4-e]pyrazin-8-yl)((3R,4aS,9bS)-6-fluoro-3-methyl-7-(trifluoromethyl)-3,4,4a,9b-tetrahydrobenzofuro[3,2-b]pyridin-1(2H)-yl)methanone] | < 100
14 | Nc1nc2cc(F)c(C(=O)N3C[C@H](F)CC[C@@H]3c3ccc(C(F)(F)F)cn3)cc2n2cncc12 (single isomer, unassigned) [Ff-244] | < 100
15 | C[C@H]1CN(C(=O)c2cc3c(cc2F)nc(N)c2cncn23)[C@H]2c3cc(F)c(OC(F)(F)F)cc3C[C@H]2O1 (single isomer, unassigned) [Ff-198] | < 100
16 | Cc1ncn2c1c(N)nc1cc(F)c(C(=O)N(C)[C@@H]3CCc4nc(C(F)(F)F)ccc43)cc12 [Ff-316, (R)-4-amino-7-fluoro-N,3-dimethyl-N-(2-(trifluoromethyl)-6,7-dihydro-5H-cyclopenta[b]pyridin-5-yl)imidazo[1,5-a]quinoxaline-8-carboxamide] | < 100
17 | Cn1cc(N(Cc2ccc(-c3cnn(C(F)F)c3)cc2F)C(=O)c2cc3c(cc2F)nc(N)c2cncn23)cn1 [Ff-221, 4-amino-N-(4-(1-(difluoromethyl)-1H-pyrazol-4-yl)-2-fluorobenzyl)-7-fluoro-N-(1-methyl-1H-pyrazol-4-yl)imidazo[1,5-a]quinoxaline-8-carboxamide] | < 100
18 | C[C@H]1OC[C@@H](N(C)C(=O)c2cc3c(cc2Cl)nc(N)c2cncn23)c2ccc(C(F)(F)F)cc21 (racemic) [Ff-284, Rac-4-amino-7-chloro-N-methyl-N-((1R,4S)-1-methyl-7-(trifluoromethyl)isochroman-4-yl)imidazo[1,5-a]quinoxaline-8-carboxamide] | < 100
19 | Cc1ncc2c(N)nc3cnc(C(=O)N4CCC[C@@H]5Oc6c(ccc(OC(F)(F)F)c6F)[C@@H]54)cc3n12 [Ff-347, (4-amino-1-methylimidazo[1,5-a]pyrido[3,4-e]pyrazin-8-yl)((4aS,9bS)-6-fluoro-7-(trifluoromethoxy)-3,4,4a,9b-tetrahydrobenzofuro[3,2-b]pyridin-1(2H)-yl)methanone] | < 100
20 | C[C@@H]1CN(C(=O)c2cc3c(cn2)nc(N)c2cncn23)[C@H]2c3ccc(C(F)(F)F)cc3C[C@H]2O1 [Ff-98, (4-aminoimidazo[1,5-a]pyrido[3,4-e]pyrazin-8-yl)((2R,4aS,9aR)-2-methyl-7-(trifluoromethyl)-2,3,9,9a-tetrahydroindeno[2,1-b][1,4]oxazin-4(4aH)-yl)methanone] | < 100
21 | Nc1nc2cc(F)c(C(=O)N3CCO[C@@H]4Cc5cc(OC(F)(F)F)ccc5[C@@H]43)cc2n2cncc12 [Ff-181, (4-amino-7-fluoroimidazo[1,5-a]quinoxalin-8-yl)((4aS,9aR)-7-(trifluoromethoxy)-2,3,9,9a-tetrahydroindeno[2,1-b][1,4]oxazin-4(4aH)-yl)methanone] | < 100
22 | CC(=O)N(C)N(Cc1ccc(C(F)(F)F)cc1Cl)C(=O)c1cc2c(cc1F)nc(N)c1cncn12 [Fb-1, N′-acetyl-4-amino-N-(2-chloro-4-(trifluoromethyl)benzyl)-7-fluoro-N′-methylimidazo[1,5-a]quinoxaline-8-carbohydrazide] | < 100
23 | C[C@H]1CN(C(=O)c2cc3c(cc2F)nc(N)c2cncn23)[C@H]2c3ccc(Br)c(F)c3C[C@H]2O1 (single isomer, unassigned) [Ff-164] | < 100
24 | Nc1nc2cc(F)c(C(=O)N3CCC[C@@H]4Cc5cc(C(F)(F)F)ccc5[C@@H]43)cc2n2cncc12 (racemic) [Ff-310, Rac-(4-amino-7-fluoroimidazo[1,5-a]quinoxalin-8-yl)((4aR,9bR)-7-(trifluoromethyl)-2,3,4,4a,5,9b-hexahydro-1H-indeno[1,2-b]pyridin-1-yl)methanone] | < 100
25 | C[C@H]1CN(C(=O)c2cc3c(cc2F)nc(N)c2cncn23)[C@H]2c3ccc(OC(F)(F)F)c(F)c3C[C@H]2O1 (single isomer, unassigned) [Ff-192] | < 100
26 | Nc1nc2cc(F)c(C(=O)N3CCO[C@@H]4Cc5nc(C(F)(F)F)ccc5[C@@H]43)cc2n2cncc12 (racemic) [Ff-88, Rac-(4-amino-7-fluoroimidazo[1,5-a]quinoxalin-8-yl)((4aR,9bS)-7-(trifluoromethyl)-2,3,5,9b-tetrahydropyrido[3′,2′:3,4]cyclopenta[1,2-b][1,4]oxazin-1(4aH)-yl)methanone] | 100 to 1000
27 | Cc1ncc2c(N)nc3cnc(C(=O)N4CCC[C@@H]5Oc6cc(C(F)(F)F)c(F)cc6[C@@H]54)cc3n12 [Ff-108, (4-amino-1-methylimidazo[1,5-a]pyrido[3,4-e]pyrazin-8-yl)((4aS,9bS)-8-fluoro-7-(trifluoromethyl)-3,4,4a,9b-tetrahydrobenzofuro[3,2-b]pyridin-1(2H)-yl)methanone] | < 100
28 | C[C@H]1CN(C(=O)c2cc3c(cc2F)nc(N)c2cncn23)[C@H]2c3ccc(-c4cnn(C(F)F)c4)c(F)c3C[C@H]2O1 [Ff-200, (4-amino-7-fluoroimidazo[1,5-a]quinoxalin-8-yl)((2S,4aS,9aR)-7-(1-(difluoromethyl)-1H-pyrazol-4-yl)-8-fluoro-2-methyl-2,3,9,9a-tetrahydroindeno[2,1-b][1,4]oxazin-4(4aH)-yl)methanone] | < 100
29 | Nc1nc2cc(F)c(C(=O)N3CCC[C@@H]4OCc5cc(C6CC6)ccc5[C@@H]43)cc2n2cncc12 (racemic) [Ff-301, Rac-(4-amino-7-fluoroimidazo[1,5-a]quinoxalin-8-yl)((4aS,10bS)-8-cyclopropyl-2,3,4,4a,6,10b-hexahydro-1H-isochromeno[4,3-b]pyridin-1-yl)methanone] | < 100
